Experimental data from PubChem BioAssay AID1963851 (Molecular Pharmacology Branch, DTP, NCI, 2024).

System: 188146-221-R-J1-PDC complex spheroid viability
Experiment: Anticancer human tumor 188146-221-R-J1-PDC patient-derived colon adenocarcinoma cell line growth inhibition [POLQ]
Details: for IC50: curve of first compound; for viability, T/C: stronger effect = lower value
Method in brief: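 Complex spheroid viability model combining PDC tumour cells with endothelial (HUVEC) and MSC stromal cells. Novobiocin, ART-558 or RP6685 were tested singly and in combination with standard and investigational anticancer drugs. Each was titrated in half-log steps from near clinical Cmax, or from 10 microM where Cmax was unknown.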
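Also: spheroids exposed to compounds for seven days.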
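For viability, T/C in this document: 100% = DMSO vehicle control viability.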

O=C(c1cc(Cc2n[nH]c(=O)c3ccccc23)ccc1F)N1CCN(C(=O)C2CC2)CC1 + Nc1ccc(C#CCN(C(=O)Cc2ncc(C(F)(F)F)cc2C(F)(F)F)c2ccc(F)cc2)nn1
IC50 (second compound 0.0316 µM): > 10 µM
IC50 (second compound 0.1 µM): > 10 µM
IC50 (second compound 0.316 µM): > 10 µM
IC50 (second compound 1 µM): > 10 µM
IC50 (second compound 3.16 µM): > 10 µM
IC50 (second compound 10 µM): > 10 µM
viability, T/C (second compound 0.0316 µM, first compound 0.0316 µM): 99.7%
viability, T/C (second compound 0.0316 µM, first compound 0.1 µM): 116%
viability, T/C (second compound 0.0316 µM, first compound 0.316 µM): 104%
viability, T/C (second compound 0.0316 µM, first compound 1 µM): 98.3%
viability, T/C (second compound 0.0316 µM, first compound 3.16 µM): 93.6%
viability, T/C (second compound 0.0316 µM, first compound 10 µM): 72.2%
viability, T/C (second compound 0.1 µM, first compound 0.0316 µM): 111%
viability, T/C (second compound 0.1 µM, first compound 0.1 µM): 100%
viability, T/C (second compound 0.1 µM, first compound 0.316 µM): 107%
viability, T/C (second compound 0.1 µM, first compound 1 µM): 90.7%
viability, T/C (second compound 0.1 µM, first compound 3.16 µM): 101%
viability, T/C (second compound 0.1 µM, first compound 10 µM): 75%
viability, T/C (second compound 0.316 µM, first compound 0.0316 µM): 116%
viability, T/C (second compound 0.316 µM, first compound 0.1 µM): 88.5%
viability, T/C (second compound 0.316 µM, first compound 0.316 µM): 89.9%
viability, T/C (second compound 0.316 µM, first compound 1 µM): 106%
viability, T/C (second compound 0.316 µM, first compound 3.16 µM): 80.9%
viability, T/C (second compound 0.316 µM, first compound 10 µM): 81.6%
viability, T/C (second compound 1 µM, first compound 0.0316 µM): 117%
viability, T/C (second compound 1 µM, first compound 0.1 µM): 90.3%
viability, T/C (second compound 1 µM, first compound 0.316 µM): 94.3%
viability, T/C (second compound 1 µM, first compound 1 µM): 92.5%
viability, T/C (second compound 1 µM, first compound 3.16 µM): 96%
viability, T/C (second compound 1 µM, first compound 10 µM): 69.1%
viability, T/C (second compound 3.16 µM, first compound 0.0316 µM): 101%
viability, T/C (second compound 3.16 µM, first compound 0.1 µM): 104%
viability, T/C (second compound 3.16 µM, first compound 0.316 µM): 97%
viability, T/C (second compound 3.16 µM, first compound 1 µM): 102%
viability, T/C (second compound 3.16 µM, first compound 3.16 µM): 91.2%
viability, T/C (second compound 3.16 µM, first compound 10 µM): 77.1%
viability, T/C (second compound 10 µM, first compound 0.0316 µM): 95.3%
viability, T/C (second compound 10 µM, first compound 0.1 µM): 95.3%
viability, T/C (second compound 10 µM, first compound 0.316 µM): 110%
viability, T/C (second compound 10 µM, first compound 1 µM): 89.8%
viability, T/C (second compound 10 µM, first compound 3.16 µM): 88.2%
viability, T/C (second compound 10 µM, first compound 10 µM): 73%
